# Measured values from paper PMC12406203 (Journal of Medicinal Chemistry, 2025).
# What was measured:
# Assay in all cases: KINOMEscan
# Format in all cases: binding
# PLK1 = target: T1, PLK1 (Homo sapiens, UniProt P53350)
# T1 construct: purchased Eurofins DiscoverX, LLC; host or cells: E. coli BL21-derived host (T7 phage) or HEK-293
# MAPKAPK2 = target: T2, MAPKAPK2 (Homo sapiens, UniProt P49137)
# T2 construct: purchased Eurofins DiscoverX, LLC; host or cells: E. coli (BL21-derived, T7 phage) or HEK-293
# PAK1 = target: T3, PAK1 (Homo sapiens, UniProt Q13153)
# T3 construct: purchased Eurofins DiscoverX, LLC; host or cells: E. coli (BL21-derived, T7 phage) or HEK-293
# SRPK3 = target: T4, SRPK3 (Homo sapiens, UniProt Q9UPE1)
# T4 construct: purchased Eurofins DiscoverX, LLC; host or cells: E. coli BL21-derived host (T7 phage) or HEK-293
# PCTK1 = target: T5, PCTK1 (Homo sapiens, UniProt Q00536)
# T5 construct: purchased Eurofins DiscoverX, LLC; host or cells: E. coli BL21-derived host (T7 phage) or HEK-293
# BMPR2 = target: T6, BMPR2 (Homo sapiens, UniProt Q13873)
# T6 construct: purchased Eurofins DiscoverX, LLC; host or cells: E. coli BL21-derived (T7 phage) or HEK-293
# T6 sequence (Q13873 27-1038): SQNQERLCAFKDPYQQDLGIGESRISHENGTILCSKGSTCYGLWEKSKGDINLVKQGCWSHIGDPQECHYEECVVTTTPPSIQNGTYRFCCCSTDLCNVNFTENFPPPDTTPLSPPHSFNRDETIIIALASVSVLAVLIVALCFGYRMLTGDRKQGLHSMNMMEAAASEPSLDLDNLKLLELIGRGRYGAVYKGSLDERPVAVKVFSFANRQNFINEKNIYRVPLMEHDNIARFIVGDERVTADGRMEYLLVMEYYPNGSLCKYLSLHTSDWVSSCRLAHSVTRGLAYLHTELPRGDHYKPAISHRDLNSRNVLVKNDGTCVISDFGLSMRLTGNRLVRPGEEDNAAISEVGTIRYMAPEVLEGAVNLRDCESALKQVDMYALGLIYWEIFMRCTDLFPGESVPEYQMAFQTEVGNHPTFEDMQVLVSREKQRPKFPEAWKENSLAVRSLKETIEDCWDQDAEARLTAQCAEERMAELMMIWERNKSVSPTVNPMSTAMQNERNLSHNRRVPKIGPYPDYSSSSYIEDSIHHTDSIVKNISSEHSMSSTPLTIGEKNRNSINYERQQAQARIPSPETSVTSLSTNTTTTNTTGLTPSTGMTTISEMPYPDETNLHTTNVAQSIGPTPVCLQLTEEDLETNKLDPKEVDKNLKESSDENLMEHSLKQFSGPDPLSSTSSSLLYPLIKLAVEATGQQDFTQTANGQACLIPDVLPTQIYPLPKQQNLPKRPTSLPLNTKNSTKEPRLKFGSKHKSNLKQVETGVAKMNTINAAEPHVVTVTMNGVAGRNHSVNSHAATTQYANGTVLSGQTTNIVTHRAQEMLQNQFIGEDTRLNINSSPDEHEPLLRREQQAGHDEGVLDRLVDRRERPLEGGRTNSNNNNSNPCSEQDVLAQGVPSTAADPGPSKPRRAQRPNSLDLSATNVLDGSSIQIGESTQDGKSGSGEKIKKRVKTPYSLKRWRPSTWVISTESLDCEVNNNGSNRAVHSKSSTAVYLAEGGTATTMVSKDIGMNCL
# IKKα = target: T7, IKKα (Homo sapiens, UniProt O15111)
# T7 construct: purchased Eurofins DiscoverX, LLC; host or cells: E. coli (T7 phage) or HEK-293
# T7 sequence (O15111 1-745): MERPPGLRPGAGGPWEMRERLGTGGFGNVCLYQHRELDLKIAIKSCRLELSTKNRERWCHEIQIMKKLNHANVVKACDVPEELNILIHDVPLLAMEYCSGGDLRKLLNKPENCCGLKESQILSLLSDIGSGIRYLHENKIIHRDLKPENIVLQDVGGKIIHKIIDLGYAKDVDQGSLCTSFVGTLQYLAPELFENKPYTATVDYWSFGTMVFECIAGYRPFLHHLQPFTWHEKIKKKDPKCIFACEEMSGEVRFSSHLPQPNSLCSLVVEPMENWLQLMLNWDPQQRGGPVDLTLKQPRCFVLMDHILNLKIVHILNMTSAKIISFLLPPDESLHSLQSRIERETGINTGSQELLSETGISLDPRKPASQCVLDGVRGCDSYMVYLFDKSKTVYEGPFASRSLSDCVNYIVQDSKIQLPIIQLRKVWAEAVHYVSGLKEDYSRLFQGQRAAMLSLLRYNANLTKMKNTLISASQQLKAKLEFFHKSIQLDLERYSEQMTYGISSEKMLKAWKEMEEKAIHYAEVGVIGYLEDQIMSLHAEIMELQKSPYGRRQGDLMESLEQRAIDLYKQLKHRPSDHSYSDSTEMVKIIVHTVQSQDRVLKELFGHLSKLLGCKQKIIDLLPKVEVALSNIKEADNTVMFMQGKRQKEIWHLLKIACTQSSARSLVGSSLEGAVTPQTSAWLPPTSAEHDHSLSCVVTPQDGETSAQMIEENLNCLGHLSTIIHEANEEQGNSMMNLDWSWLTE
# MAP3K4 = target: T8, MAP3K4 (Homo sapiens, UniProt Q9Y6R4)
# T8 construct: purchased Eurofins DiscoverX, LLC; host or cells: E. coli (BL21-derived, T7 phage) or HEK-293
# PIM2 = target: T9, PIM2 (Homo sapiens, UniProt Q9P1W9)
# T9 construct: purchased Eurofins DiscoverX, LLC; host or cells: E. coli BL21-derived host (T7 phage) or HEK-293
# T9 sequence (Q9P1W9 whole entry): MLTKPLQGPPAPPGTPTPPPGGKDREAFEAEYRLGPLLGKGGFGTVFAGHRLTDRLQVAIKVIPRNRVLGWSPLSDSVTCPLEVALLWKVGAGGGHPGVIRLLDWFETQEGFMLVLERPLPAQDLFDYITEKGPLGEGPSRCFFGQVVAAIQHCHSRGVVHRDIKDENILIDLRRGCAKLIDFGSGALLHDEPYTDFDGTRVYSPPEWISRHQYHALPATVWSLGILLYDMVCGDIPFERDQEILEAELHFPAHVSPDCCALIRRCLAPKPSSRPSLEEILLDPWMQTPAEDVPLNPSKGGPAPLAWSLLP
# T1 sequence (P53350 whole entry): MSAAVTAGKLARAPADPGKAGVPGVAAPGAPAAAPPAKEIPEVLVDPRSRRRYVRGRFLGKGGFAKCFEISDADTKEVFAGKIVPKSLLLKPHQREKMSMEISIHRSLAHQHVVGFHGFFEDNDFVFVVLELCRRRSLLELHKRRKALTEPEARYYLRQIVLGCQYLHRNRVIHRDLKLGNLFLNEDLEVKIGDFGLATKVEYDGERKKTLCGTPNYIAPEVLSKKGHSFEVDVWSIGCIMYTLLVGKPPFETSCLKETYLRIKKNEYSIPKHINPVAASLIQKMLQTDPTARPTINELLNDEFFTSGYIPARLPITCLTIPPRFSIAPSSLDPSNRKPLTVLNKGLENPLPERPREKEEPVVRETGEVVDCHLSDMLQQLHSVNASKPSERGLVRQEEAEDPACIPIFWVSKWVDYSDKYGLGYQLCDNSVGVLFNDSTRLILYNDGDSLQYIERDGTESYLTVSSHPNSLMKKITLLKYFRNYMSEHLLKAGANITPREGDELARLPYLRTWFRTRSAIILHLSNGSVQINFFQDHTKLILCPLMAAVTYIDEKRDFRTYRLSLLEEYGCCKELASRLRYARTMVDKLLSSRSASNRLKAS
# T5 sequence (Q00536 whole entry): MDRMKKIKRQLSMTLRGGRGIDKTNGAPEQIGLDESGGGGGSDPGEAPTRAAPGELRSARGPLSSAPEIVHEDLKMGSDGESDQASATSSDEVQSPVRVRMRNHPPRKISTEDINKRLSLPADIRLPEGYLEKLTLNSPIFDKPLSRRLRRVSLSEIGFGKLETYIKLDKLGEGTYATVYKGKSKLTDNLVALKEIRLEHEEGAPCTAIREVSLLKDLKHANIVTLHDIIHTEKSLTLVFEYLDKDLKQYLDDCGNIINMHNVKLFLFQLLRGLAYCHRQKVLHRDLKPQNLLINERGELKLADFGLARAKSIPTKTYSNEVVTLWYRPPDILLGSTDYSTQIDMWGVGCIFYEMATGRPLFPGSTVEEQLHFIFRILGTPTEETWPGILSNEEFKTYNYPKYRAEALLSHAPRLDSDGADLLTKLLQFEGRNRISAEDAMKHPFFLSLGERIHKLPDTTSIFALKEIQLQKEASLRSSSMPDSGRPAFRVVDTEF
# T8 sequence (Q9Y6R4 whole entry): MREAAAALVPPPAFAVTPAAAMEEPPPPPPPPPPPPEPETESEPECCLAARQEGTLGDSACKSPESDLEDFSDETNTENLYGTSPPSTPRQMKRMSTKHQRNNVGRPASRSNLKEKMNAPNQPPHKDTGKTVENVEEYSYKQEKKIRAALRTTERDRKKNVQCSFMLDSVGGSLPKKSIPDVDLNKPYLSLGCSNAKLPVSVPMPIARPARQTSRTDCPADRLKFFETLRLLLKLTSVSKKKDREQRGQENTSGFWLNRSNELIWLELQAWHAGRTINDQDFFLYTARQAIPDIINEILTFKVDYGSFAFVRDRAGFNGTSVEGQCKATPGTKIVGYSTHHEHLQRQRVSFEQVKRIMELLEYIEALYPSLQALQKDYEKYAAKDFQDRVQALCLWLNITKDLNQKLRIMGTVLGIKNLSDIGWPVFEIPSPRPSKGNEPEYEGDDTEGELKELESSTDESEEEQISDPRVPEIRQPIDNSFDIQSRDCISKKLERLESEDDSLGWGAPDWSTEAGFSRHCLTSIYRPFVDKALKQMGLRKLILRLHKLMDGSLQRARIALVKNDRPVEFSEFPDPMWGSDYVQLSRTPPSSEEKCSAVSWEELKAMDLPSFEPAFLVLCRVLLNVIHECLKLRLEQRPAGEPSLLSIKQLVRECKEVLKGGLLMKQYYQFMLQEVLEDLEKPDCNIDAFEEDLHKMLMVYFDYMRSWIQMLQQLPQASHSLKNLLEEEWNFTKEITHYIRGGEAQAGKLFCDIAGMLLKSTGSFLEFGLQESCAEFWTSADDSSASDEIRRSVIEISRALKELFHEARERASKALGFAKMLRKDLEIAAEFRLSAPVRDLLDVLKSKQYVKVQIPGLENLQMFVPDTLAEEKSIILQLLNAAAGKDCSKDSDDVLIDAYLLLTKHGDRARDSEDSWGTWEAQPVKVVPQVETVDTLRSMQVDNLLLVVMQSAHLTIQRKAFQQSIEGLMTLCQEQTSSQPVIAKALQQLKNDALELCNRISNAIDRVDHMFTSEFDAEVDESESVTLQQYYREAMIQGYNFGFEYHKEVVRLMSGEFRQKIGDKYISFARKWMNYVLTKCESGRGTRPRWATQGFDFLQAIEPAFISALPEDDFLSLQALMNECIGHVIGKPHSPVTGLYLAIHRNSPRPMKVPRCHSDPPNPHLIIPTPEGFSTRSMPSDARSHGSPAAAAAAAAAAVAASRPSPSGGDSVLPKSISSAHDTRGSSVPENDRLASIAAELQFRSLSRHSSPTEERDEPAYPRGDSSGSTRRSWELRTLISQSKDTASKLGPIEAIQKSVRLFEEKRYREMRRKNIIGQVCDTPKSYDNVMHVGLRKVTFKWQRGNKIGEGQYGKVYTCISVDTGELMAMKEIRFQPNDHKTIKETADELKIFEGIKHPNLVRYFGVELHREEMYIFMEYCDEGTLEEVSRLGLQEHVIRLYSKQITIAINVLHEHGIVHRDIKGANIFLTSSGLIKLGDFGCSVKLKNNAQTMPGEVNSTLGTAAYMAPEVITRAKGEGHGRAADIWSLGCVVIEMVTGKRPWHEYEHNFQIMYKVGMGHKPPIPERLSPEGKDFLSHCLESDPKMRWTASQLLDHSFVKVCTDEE
# T2 sequence (P49137 whole entry): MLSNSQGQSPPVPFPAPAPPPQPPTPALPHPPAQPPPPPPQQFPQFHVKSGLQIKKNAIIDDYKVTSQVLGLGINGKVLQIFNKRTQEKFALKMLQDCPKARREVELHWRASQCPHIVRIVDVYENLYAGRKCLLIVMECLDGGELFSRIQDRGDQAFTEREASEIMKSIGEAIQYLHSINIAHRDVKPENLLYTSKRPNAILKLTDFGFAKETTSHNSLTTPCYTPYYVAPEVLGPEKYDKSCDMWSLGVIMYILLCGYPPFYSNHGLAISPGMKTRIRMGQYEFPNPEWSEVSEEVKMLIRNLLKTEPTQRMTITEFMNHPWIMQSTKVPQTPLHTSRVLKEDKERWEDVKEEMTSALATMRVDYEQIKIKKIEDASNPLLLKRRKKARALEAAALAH
# T3 sequence (Q13153 whole entry): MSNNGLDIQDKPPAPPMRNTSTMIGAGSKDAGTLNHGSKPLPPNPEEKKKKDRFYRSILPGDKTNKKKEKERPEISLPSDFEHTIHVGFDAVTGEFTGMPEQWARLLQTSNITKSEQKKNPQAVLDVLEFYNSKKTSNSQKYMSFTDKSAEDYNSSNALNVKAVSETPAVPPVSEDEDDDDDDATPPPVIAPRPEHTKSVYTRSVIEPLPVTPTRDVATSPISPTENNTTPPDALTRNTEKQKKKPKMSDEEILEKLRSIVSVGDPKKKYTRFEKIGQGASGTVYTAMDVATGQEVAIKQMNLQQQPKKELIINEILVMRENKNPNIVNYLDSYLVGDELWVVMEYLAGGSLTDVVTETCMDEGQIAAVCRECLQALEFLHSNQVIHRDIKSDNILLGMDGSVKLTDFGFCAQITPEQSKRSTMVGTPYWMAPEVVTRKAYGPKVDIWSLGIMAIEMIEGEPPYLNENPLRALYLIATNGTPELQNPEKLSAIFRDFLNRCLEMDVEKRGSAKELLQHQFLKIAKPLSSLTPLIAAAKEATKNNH
# T4 sequence (Q9UPE1 whole entry): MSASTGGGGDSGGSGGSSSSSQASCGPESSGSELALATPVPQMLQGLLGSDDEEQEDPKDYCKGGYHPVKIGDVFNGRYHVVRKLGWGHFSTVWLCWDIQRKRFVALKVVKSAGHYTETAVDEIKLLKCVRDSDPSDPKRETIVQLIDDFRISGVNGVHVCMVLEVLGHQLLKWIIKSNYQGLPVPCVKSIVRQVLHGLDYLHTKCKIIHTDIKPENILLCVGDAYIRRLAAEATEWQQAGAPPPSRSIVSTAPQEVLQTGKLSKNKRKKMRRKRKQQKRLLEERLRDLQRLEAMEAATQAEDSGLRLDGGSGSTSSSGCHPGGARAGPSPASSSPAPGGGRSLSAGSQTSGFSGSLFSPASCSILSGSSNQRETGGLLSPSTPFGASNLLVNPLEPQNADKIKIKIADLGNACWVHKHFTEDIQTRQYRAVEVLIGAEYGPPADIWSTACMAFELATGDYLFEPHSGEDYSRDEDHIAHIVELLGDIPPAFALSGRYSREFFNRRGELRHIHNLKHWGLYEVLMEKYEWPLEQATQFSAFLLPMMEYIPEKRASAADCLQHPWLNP
SMILES,RA @ 1000nM (PLK1),RA @ 10000nM (PLK1),RA @ 1000nM (MAPKAPK2),RA @ 10000nM (MAPKAPK2),RA @ 1000nM (PAK1),RA @ 10000nM (PAK1),RA @ 1000nM (SRPK3),RA @ 10000nM (SRPK3),RA @ 1000nM (PCTK1),RA @ 10000nM (PCTK1),RA @ 1000nM (BMPR2),RA @ 10000nM (BMPR2),RA @ 1000nM (IKKα),RA @ 10000nM (IKKα),RA @ 1000nM (MAP3K4),RA @ 10000nM (MAP3K4),RA @ 1000nM (PIM2),RA @ 10000nM (PIM2)
"CN(C)CCNC(=O)c1cc2c(cnn2CC2CCCCC2)cc1Cc1ccc(F)cc1F [Compound 95, 1-(Cyclohexylmethyl)-5-(2,4-difluorobenzyl)-N-(2-(dimethylamino)ethyl)-1H-indazole-6-carboxamide]",100%,100%,100%,100%,100%,93%,92%,99%,87%,79%,89%,92%,92%,75%,100%,60%,100%,100%
"CC(C)Cn1ncc2cc(Cc3ccc(F)cc3F)c(C(=O)NCCN(C)C)cc21 [Compound 94, 5-(2,4-Difluorobenzyl)-N-(2-(dimethylamino)ethyl)-1-isobutyl-1H-indazole-6-carboxamide]",100%,100%,100%,84%,96%,94%,77%,100%,96%,92%,86%,95%,82%,87%,49%,100%,100%,100%
